Measured values: patent publication US10626105B2, “Deuterium-substituted pyridin- and pyrimidin-2-yl-methylamine compounds” (Auspex Pharmaceuticals, Inc., priority 2016, dated 2020)

Experiment: In vitro human liver microsomal stability assay
Type: in vitro ADME
Conditions: human liver microsomes 0.5 mg/mL protein, NADPH 2 mM, pH 7.4, 1 μM test compound, 37 °C, 0-45 min; change relative to non-deuterated (d0) comparative compound
Experimental: In Vitro Liver Microsomal Stability Assay
Human liver microsomal stability assays were conducted at 0.5 mg per mL liver microsome protein with NADPH (2 mM, pH 7.4). Test compounds were prepared as solutions in DMSO and added to the assay mixture (1 μM, final concentration in incubation) to be incubated at 37±1° C. Reactions were initiated with the addition of cofactor and are stopped at 0, 5, 15, 30, and 45 min after cofactor addition with stop reagent (acetonitrile). After quenching, plates containing samples are vibrated for 10 min (600 rpm/min) and then centrifuged at 5594 g for 15 min. Supernatant fractions were analyzed by LC-MS/MS to determine the percent remaining and estimate the degradation half-life of the test compounds.

Structure (SMILES)	Clearance % change over d0 [%]	Half-life % change over d0 [%]
[2H]C([2H])(NCC1(F)CCN(C(=O)c2ccc(F)c(Cl)c2)CC1)c1ccc(C)cn1 [Example 5, (3-chloro-4-fluorophenyl)(4-fluoro-4-((((5-methylpyridin-2-yl)methyl-d2)amino)methyl)piperidin-1-yl)methanone]	−6.7	7.2
[2H]C([2H])([2H])c1ccc(C([2H])([2H])NC([2H])([2H])C2(F)CCN(C(=O)c3ccc(F)c(Cl)c3)CC2)nc1 [Example 6, (3-chloro-4-fluorophenyl)(4-fluoro-4-((((5-(methyl-d3)pyridin-2-yl)methyl-d2)amino)methyl-d2)piperidin-1-yl)methanone]	−9.1	10.0
[2H]C([2H])(NCc1ccc(C)cn1)C1(F)CCN(C(=O)c2ccc(F)c(Cl)c2)CC1 [Example 2, (3-chloro-4-fluorophenyl)(4-fluoro-4-((((5-methylpyridin-2-yl)methyl)amino)methyl-d2)piperidin-1-yl)methanone]	−7.5	8.4
[2H]C([2H])([2H])c1cnc(CNCC2(F)CCN(C(=O)c3ccc(F)c(Cl)c3)CC2)nc1 [Example 10, (3-chloro-4-fluorophenyl)(4-fluoro-4-((((5-(methyl-d3)pyrimidin-2-yl)methyl)amino)methyl)piperidin-1-yl)methanone]	8.4	−7.7
[2H]C([2H])(NCc1ncc(C)cn1)C1(F)CCN(C(=O)c2ccc(F)c(Cl)c2)CC1 [Example 12, (3-chloro-4-fluorophenyl)(4-fluoro-4-((((5-methylpyrimidin-2-yl)methyl)amino)methyl-d2)piperidin-1-yl)methanone]	2.1	−2.1
[2H]C([2H])([2H])c1cnc(C([2H])([2H])NCC2(F)CCN(C(=O)c3ccc(F)c(Cl)c3)CC2)nc1 [Example 11, (3-chloro-4-fluorophenyl)(4-fluoro-4-((((5-(methyl-d3)pyrimidin-2-yl)methyl-d2)amino)methyl)piperidin-1-yl)methanone]	5.5	−5.2
[2H]C(NCc1ncc(C)cn1)C1(F)C([2H])([2H])C([2H])([2H])N(C(=O)c2ccc(F)c(Cl)c2)C([2H])([2H])C1([2H])[2H] (centres unmarked) [Example 13, ([1-[(3-chloro-4-fluorophenyl)carbonyl]-4-fluoro(d8)piperidin-4-yl](d)methyl)[(5-methylpyrimidin-2-yl)methyl]amine]	−0.9	0.9
[2H]C([2H])([2H])c1ccc(C([2H])([2H])NCC2(F)CCN(C(=O)c3ccc(F)c(Cl)c3)CC2)nc1 [Example 4, (3-chloro-4-fluorophenyl)(4-fluoro-4-((((5-(methyl-d3)pyridin-2-yl)methyl-d2)amino)methyl)piperidin-1-yl)methanone]	−5.1	5.4
[2H]C(NCc1ccc(C)cn1)C1(F)C([2H])([2H])C([2H])([2H])N(C(=O)c2ccc(F)c(Cl)c2)C([2H])([2H])C1([2H])[2H] (centres unmarked) [Example 7, ([1-[(3-chloro-4-fluorophenyl)carbonyl]-4-fluoro(d8)piperidin-4-yl](d)methyl)[(5-methylpyridin-2-yl)methyl]amine]	−5.8	6.2
[2H]C([2H])([2H])c1ccc(CNCC2(F)CCN(C(=O)c3ccc(F)c(Cl)c3)CC2)nc1 [Example 3, (3-chloro-4-fluorophenyl)(4-fluoro-4-((((5-(methyl-d3)pyridin-2-yl)methyl)amino)methyl)piperidin-1-yl)methanone]	−5.	5.6
Cc1cnc(CNCC2(F)CCN(C(=O)c3ccc(F)c(Cl)c3)CC2)nc1 [Example 8, (3-chloro-4-fluorophenyl)(4-fluoro-4-((((5-methylpyrimidin-2-yl)methyl)amino)methyl)piperidin-1-yl)methanone, reference compound]	0	0
[2H]C([2H])(NCC1(F)CCN(C(=O)c2ccc(F)c(Cl)c2)CC1)c1ncc(C)cn1 [Example 9, (3-chloro-4-fluorophenyl)(4-fluoro-4-((((5-methylpyrimidin-2-yl)methyl-d2)amino)methyl)piperidin-1-yl)methanone]	3.7	−3.5
Cc1ccc(CNCC2(F)CCN(C(=O)c3ccc(F)c(Cl)c3)CC2)nc1 [Example 1, (3-chloro-4-fluorophenyl)(4-fluoro-4-((((5-methylpyridin-2-yl)methyl)amino)methyl)piperidin-1-yl)methanone, reference compound]	0	0
